Experimental data published in ChEMBL document CHEMBL1201862, “PubChem BioAssay data set” (2004).
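The compound was tested at five concentrations on cells cultured in 96-well plates, with a 48-hour exposure period. The concentration for 50% growth inhibition is given as GI50.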 Activity calls are given as the source filed them. Cut-off read from the data, not from the text of the source: active = GI50 up to about 1.1 µM and inactive = higher.

What was measured:
Assay in all cases: growth of human tumour cells (NCI), 48 h
[1] = tested on: MDA-MB-435
[2] = tested on: IGROV-1
[3] = tested on: UACC-62
[4] = tested on: SR
[5] = tested on: OVCAR-5
[6] = tested on: OVCAR-3
[7] = tested on: A498
[8] = tested on: SF-539
[9] = tested on: TK-10
[10] = tested on: A549
[11] = tested on: UACC-257
[12] = tested on: MDA-N
[13] = tested on: UO-31
[14] = tested on: COLO 205
[15] = tested on: PC-3
[16] = tested on: T47D
[17] = tested on: RXF 393
[18] = tested on: SF-268
[19] = tested on: OVCAR-4
[20] = tested on: HOP-62
[21] = tested on: HL-60
[22] = tested on: NCI-H460
[23] = tested on: MDA-MB-231
[24] = tested on: DU-145
[25] = tested on: HCT-15
[26] = tested on: M14
[27] = tested on: LOX IMVI
[28] = tested on: 786-0
[29] = tested on: CCRF-CEM
[30] = tested on: OVCAR-8
[31] = tested on: NCI-H522
[32] = tested on: SK-MEL-2
[33] = tested on: HT-29
[34] = tested on: MOLT-4
[35] = tested on: CAKI-1
[36] = tested on: SK-MEL-5
[37] = tested on: SK-OV-3
[38] = tested on: MCF7
[39] = tested on: U-251
[40] = tested on: Hs-578T
[41] = tested on: EKVX
[42] = tested on: BT-549
[43] = tested on: SNB-75
[44] = tested on: HCT-116
[45] = tested on: NCI/ADR-RES
[46] = tested on: NCI-H226
[47] = tested on: K562
[48] = tested on: SNB-19
[49] = tested on: SN12C
[50] = tested on: Malme-3M
[51] = tested on: KM12
[52] = tested on: SK-MEL-28
[53] = tested on: RPMI-8226
[54] = tested on: SF-295
[55] = tested on: SW-620
[56] = tested on: NCI-H23
[57] = tested on: ACHN
[58] = tested on: HOP-92
[59] = tested on: HCC 2998

Measured: GI50

COc1ccc(NC(=S)Nc2cc(C)cc(C)n2)cc1
> 100 µM: [25]
inactive: [1] > 100 µM | [2] > 100 µM | [3] > 100 µM | [4] > 100 µM | [5] > 100 µM | [6] > 100 µM | [7] > 100 µM | [8] > 100 µM | [9] > 100 µM | [10] > 100 µM | [11] > 100 µM | [12] > 100 µM | [13] > 100 µM | [14] > 100 µM | [15] > 100 µM | [16] > 100 µM | [17] > 100 µM | [18] > 100 µM | [19] > 100 µM | [20] > 100 µM | [21] > 100 µM | [22] > 100 µM | [23] > 100 µM | [24] > 100 µM | [26] > 100 µM | [27] > 100 µM | [28] > 100 µM | [29] > 100 µM | [30] > 100 µM | [31] > 100 µM | [32] > 100 µM | [33] > 100 µM | [34] > 100 µM | [35] > 100 µM | [36] > 100 µM | [37] > 100 µM | [38] > 100 µM | [39] > 100 µM | [40] > 100 µM | [41] > 100 µM | [42] > 100 µM | [43] > 100 µM | [44] > 100 µM | [45] > 100 µM | [46] > 100 µM | [47] > 100 µM | [48] > 100 µM | [49] > 100 µM | [50] > 100 µM | [51] > 100 µM | [52] > 100 µM | [53] > 100 µM | [54] > 100 µM | [55] > 100 µM

N#Cc1c(Cl)c2cc([N+](=O)[O-])ccc2n2c1nc1ccccc12
active: [21] 0.172 µM | [23] 0.492 µM | [29] 0.57 µM | [34] 0.8 µM
inactive: [1] 2.35 µM | [3] 12 µM | [56] 9.98 µM | [5] 4.05 µM | [6] 6.76 µM | [7] 25.6 µM | [8] 2.15 µM | [9] 3.81 µM | [10] 35.8 µM | [11] 20.6 µM | [12] 7.19 µM | [13] 2.58 µM | [14] 2.21 µM | [15] 5.46 µM | [16] 1.79 µM | [17] 2.38 µM | [18] 5.71 µM | [57] 4.29 µM | [19] 2.15 µM | [20] 18.2 µM | [22] 14.6 µM | [24] 3.5 µM | [26] 1.99 µM | [27] 1.87 µM | [28] 2.01 µM | [30] 3.21 µM | [31] 2.54 µM | [32] 15.5 µM | [33] 4.46 µM | [35] 2.14 µM | [36] 22.6 µM | [58] 2.77 µM | [37] 23.3 µM | [38] 1.17 µM | [39] 7.57 µM | [40] 7.69 µM | [41] 15.8 µM | [42] 19.5 µM | [43] 8.81 µM | [44] 3.17 µM | [45] 5.07 µM | [46] 10.6 µM | [47] 1.85 µM | [48] 13.6 µM | [49] 4.44 µM | [50] 6.85 µM | [51] 9.91 µM | [52] 6.87 µM | [59] 7.53 µM | [53] 3.94 µM | [54] 26.8 µM | [55] 2.26 µM
0.933 µM: [25]
